Like-named read-outs stand apart in the source and are kept apart here.
How the values were obtained:
[1] = Mole:mole creatinine to creatine ratios required for stability at 2, 22 and 39° C. over pH 3.8 to 8.25 (Example 5); details: for time to reach stability: starting ratios close to equilibrium
Experimental: Using solutions from 1. above the following solutions were prepared at room temperature:
Triplicate samples were prepared.
The samples were capped and heat sterilized for 30 minutes at 90° C.
One set of samples was stored at 2° C., another set at 22° C. and the final set stored at 39°.

[2] = ingestion of 20 to 30 g per day for several days; cited from earlier work
[3] = Flavored drink of creatine plus creatinine formed by heating: stability at 22° C. and solubility at 3° C. (Example 4); assay type: physicochemical; details: Example 4 drink at 3° C.
Experimental: The solution was cooled to room temperature.
In addition, the solution contained 15 percent Aloe Vera juice, flavoring and dextrose to sweeten.
Solutions from steps 1 and 2 were then mixed together and heated at 90° C. for 30 minutes to sterilize the mixture and then placed in a glass or plastic bottle and stored at 22° C.

[4] = not given; remark: listed apart in the source
[5] = Vandeberg et al 1996 J. Appl. Physiology 80; cited from earlier work
[6] = human body; cited from earlier work

CN(CC(=O)O)C(=N)N.O [creatine monohydrate]
increase between weeks 5 and 6 as creatine monohydrate ([1]; 39° C.): 0.113 g per litre | increase in human skeletal muscle total creatine content [2]: greater than 20%

CN(CC(=O)O)C(=N)N [creatine]
time to reach equilibrium (solution of low pH, composed initially of just creatine, 22° C. (FIG. 2)): up to 8 weeks | time to reach stability (starting with creatine and no creatinine, 22° C.): ≥ 4 weeks | precipitation in refrigerator [3]: did not precipitate out | mean change in creatine concentration between weeks 5 and 6 ([1]; 39° C., mean (SD)): +0.76 (SD 1.3) mmol/l | percentage change from weeks 5 and 6 ([1]; 39° C., mean (SD)): 3.1 (3.8) % | time to reach stability ([1]; incubated at 39° C.): < 5 weeks | time to reach stability ([1]; incubated between 2 and 39° C.): ≤ 6 weeks | period remaining creatine stable after heating ([4]; pH's 3 and 4, after 30 minutes at 90° C., 22° C.): at least 95 days | stability of creatine with sufficient creatinine ([4]; pH's 5, 6 and 7, creatinine:creatine monohydrate 1:1, heated 30 minutes at 90° C.): exceptionally stable | loss of creatine during the heating period ([4]; pH's 6 and 7, 90° C. 30 minutes, creatinine 1:1 w/w): no loss of creatine

Cn1c(=O)c2c(ncn2C)n(C)c1=O [caffeine]
effect on ergogenic action of muscle creatine loading [5]: counteracted the ergogenic action of muscle creatine loading | half life of ingested caffeine [6]: 5 to 6 h

— US7150880B2, “Compositions containing creatine and creatinine and a methyl xanthine” (The Original Creatine Patent Co. Ltd., priority 1996, dated 2006)
